Assay results as given in patent publication US20240197760A1, “ACTIVATORS OF INTEGRATED STRESS RESPONSE PATHWAY FOR PROTECTION AGAINST FERROPTOSIS” (Burke Neurological Institute, priority 2021, published 2024).
*1 amine or outer side, *2 acyl side, *3 side chain or, on linkers, in order; H or OH if unused. Where a SMILES comes first, the peptide text is derived from it. Bridges are numbered along the chain shown (N, C = ends). Roman numbers before positions name the chains, in order. [ ]: non-standard residue; d: D form. Actinocin(9to1) = Cc1c2oc3c(C)ccc(C(=O)[*:1])c3nc-2c(C(=O)[*:2])c(N)c1=O; NMeV = CN[C@H](C(=O)O)C(C)C; Sar = CNCC(=O)O

Tests used:
Creb1, Bdnf, Rbbp4 = experiment: Plasticity gene expression by quantitative real time PCR in mouse primary neurons; assay type: cell-based; settings: for effect on 2-DG led increase in Bdnf gene expression: increasing concentrations co-treated with 2-DG
Experimental: Primary immature neuronal cultures were prepared from cerebral cortex of E14 embryos (day 14 of gestation) of CD1 mice under sterile conditions. Dissected cortices were incubated at 37° C. for 20 min in EBSS solution containing papain, L-cystine and EDTA, which was activated at 37 °C for 30 min and then was filtered through […] (Millipore, catalog number—SCGP00525). Cortices were then mechanically dissociated by trituration with glass pipettes. The rDNase was added in dissociated cells followed by incubation of these dissociated cells at 37 °C for 3 min. Thereafter, these cells were centrifuged at 2800 rpm for 5 min. Then supernatant was discarded, and cell were resuspended gently in a 5 ml mixture of EBSS and 10/10 solution (4:1 ratio). Then 5 ml of 10/10 solution was added gently on top and these resuspended cells were centrifuged at 2800 rpm for 10 min. Supernatant was again discarded and cells were resuspended in 10 ml MEM, Glutamax supplement (Thermo Fisher Scientific, Catalog number—41090036) containing 10% heat inactivated fetal bovine serum (Thermo Fisher Scientific, Catalog number—16140071), 5% heat inactivated horse serum (Thermo Fisher Scientific, Catalog number—26050088), and 1% penicillin/streptomycin (Thermo Fisher Scientific, Catalog number—15140122). Thereafter, resuspended cells were filtered through 70-micron cell strainer (Thomas Scientific, catalog number—4620F02) followed by their counting through Hemocytometer. Cells were, finally, plated at the density of 1 million cells/ml onto poly-D-Lysine (PDL; Sigma Aldrich, catalog number—P6407-10X5MG) coated pates and placed in CO2-buffered incubators at 37° C.
(§1) Total RNA was extracted from primary cortical neurons using NucleoSpin RNA II Kit (Clontech, Catalog number—740955-250). Thereafter, using the Taqman RNA-to-Ct, one step kit (Thermo Fisher Scientific, catalog number—4392938) and following the manufacturer's instructions, […] from each sample was mixed with the Taqman® Gene Expression Master Mix and Taqman® Gene Expression Assays for Creb1 (Catalog number—Mm00501607_m1), Bdnf (Catalog number—Mm04230607_s1), Rbbp4 (Catalog number—Mm00771401_g1), Bip (Catalog number—Mm00517691_m1), Trib3 (Catalog number—Mm00454879_m1), and Chac1 (Catalog number—Mm00509926_m1) with FAM labelled probe and Actin with VIC labelled probe all from Thermo Fisher Scientific on an Applied Biosystems 7500 Fast Real Time PCR System. For assessing gene expression of various specific Bdnf exons in mouse primary neurons, two step qPCR was used. Total RNA from primary cortical neurons was extracted using NucleoSpin RNA II Kit (Clontech, Catalog number—740955-250) and a total of 1.5 μg RNA was used to synthesize cDNA with the SuperScript® III First-Strand Synthesis System (Thermo Fisher Scientific, Catalog number—18080051). Quantitative RT-PCR was then performed using SYBR green (Thermo Fisher Scientific, Catalog number—4309155) on an Applied Biosystems 7500 Fast Real Time PCR System. Quantitative levels for all genes were normalized to the housekeeping gene GAPDH and expressed relative to the relevant control samples as fold change. The sequences of primers used in this part of the study were as follows: Bdnf I forward: […] (SEQ ID NO:9) and Bdnf I reverse: […] (SEQ ID NO:10); Bdnf II forward: […] (SEQ ID NO:11) and Bdnf II reverse: […] (SEQ ID NO:12); Bdnf IV forward #2: […] (SEQ ID NO:13) and Bdnf IV reverse #2: […] (SEQ ID NO:14); Bdnf VI forward: […] (SEQ ID NO:15) and Bdnf VI reverse: […] (SEQ ID NO:16); Bdnf VII forward: […] (SEQ ID NO:17) and Bdnf VII reverse: […] (SEQ ID NO:18) Bdnf IX forward: […] (SEQ ID NO:19) and Bdnf IX reverse: […] (SEQ ID NO:20); Gapdh forward #2: […] (SEQ ID NO:21) and Gapdh reverse #2: […] (SEQ ID NO: 22).

Bdnf = Bdnf gene expression in hippocampal slices submerged in ACSF; set-up: species or system mouse; settings: 1 μg/ml with 2-DG 10 mM in ACSF
hippocampal slices = experiment: Long term potentiation (fEPSP) in submerged hippocampal slices; set-up: species or system mouse; settings: 1 μg/ml with 2-DG 10 mM, 6 h, hippocampal slices
Description: Brains were quickly removed from mice sacrificed by cervical dislocation and placed in cold artificial cerebrospinal fluid (ACSF) (bubbled with 95% O2/5% CO2) containing (in mM): 124 NaCl, 4 KCl, 1 Na2HPO4, 25 NaHCO3, 2 CaCl2, 2 MgCl2, and 10 glucose. The pH and osmolarity of the solution were 7.4 and 310 mOsm/L, respectively. The hippocampus was isolated and placed on a mechanical tissue chopper to produce transverse hippocampal slices of 400 μm thickness. […] Hippocampal slices were allowed to recover for at least 90 min prior to beginning the experiment. For recordings, glass electrodes were filled with ACSF and positioned in the CA1 stratum radiatum to record fEPSPs evoked by local stimulation (0.1 ms) of Schaffer collateral fibers using a bipolar concentric electrode placed laterally to the recording electrode (˜150 μm). For LTP recordings, the voltage intensity of the stimulation test pulse (square pulse, 100 us duration) for each slice was determined to be the voltage intensity that had generated 30-40% of the maximum slope obtained using input-output relationships. Facilitation was calculated as the ratio of the slopes of the second and first fEPSPs, and plotted as a function of the inter-pulse duration. For LTP, a test pulse was applied every minute. […] Residual potentiation was calculated as the average of the last 15 min of 2 h of recordings.

Trib3, Chac1, Bip = experiment: Expression of ATF4 target genes and chaperone Bip in mouse primary neurons; assay type: cell-based; settings: for effect on glucosamine induced expression of Trib3: co-treatment with glucosamine, primary neurons
Experimental: as §1

[1] = system: Trib3 promoter, Bdnf promoter; experiment: Promoter reporter luciferase assay in primary neurons; assay type: cell-based, mouse; settings: 5 μM co-treated with 2-DG 10 mM, 9 h
Experimental: Primary neurons were co-transfected with various plasmids such as different Bdnf exon promoters each tagged with firefly luciferase or Trib3 promoter tagged with firefly luciferase and pTK-renilla luciferase plasmid at 1:10 ratio using Lipofectamine 2000 (Thermo Fisher Scientific, catalog number—11668019) according to the manufacturer's instructions to control for transfection efficiency. […] Thereafter, luciferase activity was measured using dual luciferase assay kit (Promega) and bioluminometer (MDS Analytical Technologies). Final luciferase activity was calculated by normalizing firefly luciferase activity with Renilla luciferase activity and then the valued were converted to fold change with respect to control.

[2] = 5 μM co-treated with 2-DG 10 mM, 9 h
[3] = 3 μM, 6 h, mouse primary neurons

Cc1c2oc3c(C)ccc(C(=O)N[C@@H]4C(=O)N[C@H](C(C)C)C(=O)N5CCC[C@H]5C(=O)N(C)CC(=O)N(C)[C@@H](C(C)C)C(=O)O[C@@H]4C)c3nc-2c(C(=O)N[C@@H]2C(=O)N[C@H](C(C)C)C(=O)N3CCC[C@H]3C(=O)N(C)CC(=O)N(C)[C@@H](C(C)C)C(=O)O[C@@H]2C)c(N)c1=O [ActD, actinomycin D] (I: T[dV]P[Sar][NMeV] / II: T[dV]P[Sar][NMeV]; ester I:1-I:C, II:1-II:C; linker I:N-II:N via Actinocin(9to1))
effect on 2-DG led increase in plasticity genes Creb1, Bdnf and Rbbp4 (Creb1, Bdnf, Rbbp4; co-treatment with 2-DG, 6 h, mouse immature primary neurons): completely blocked | effect on 2-DG led increase in Bdnf gene expression in hippocampal slices (Bdnf): able to block | effect on 2-DG led induction in LTP (hippocampal slices): completely blocked

O=C[C@H](O)[C@@H](O)[C@H](O)[C@H](O)CO [D-glucose]
effect on 2-DG led increase in Bdnf gene expression (Creb1, Bdnf, Rbbp4; 6 h, mouse primary neurons): decreased 2-DG led increase in Bdnf gene expression in a dose dependent manner

O=C[C@@H](O)[C@@H](O)[C@H](O)[C@H](O)CO [D-mannose]
effect on 2-DG led increase in Bdnf gene expression (Creb1, Bdnf, Rbbp4; 6 h, mouse primary neurons): decreased 2-DG led increase in Bdnf gene expression in a dose dependent manner

Cn1cc(-c2ccc3c(c2)CCN3C(=O)Cc2cccc(C(F)(F)F)c2)c2c(N)ncnc21 [GSK2606414, 7-methyl-5-(1-{[3-(trifluoromethyl)phenyl]acetyl}-2,3-dihydro-1H-indol-5-yl)-7H-pyrrolo[2,3-d]pyrimidin-4-amine]
effect on 2-DG led increase in Bdnf expression (mRNA) (Creb1, Bdnf, Rbbp4; [2]): blocked | effect on glucosamine led increase in Bdnf gene expression (Creb1, Bdnf, Rbbp4; co-treatment with glucosamine, primary neurons): blocked | effect on 2-DG led increase in Trib3 expression (mRNA) (Trib3, Chac1, Bip; [2]): completely blocked | effect on glucosamine induced expression of Trib3 (Trib3, Chac1, Bip): blocked | effect on glucosamine induced expression of Trib3 (Trib3, Chac1, Bip; listed as PERK inhibitor I): completely blocked | effect on 2-DG led increase in Bdnf promoter activity [1]: blocked | effect on 2-DG led increase in Trib3 promoter activity [1]: completely blocked

N[C@H]1C(O)O[C@H](CO)[C@@H](O)[C@@H]1O (stereo partly shown) [glucosamine]
glucosamine induced expression of plasticity genes in combination with actinomycin D (Creb1, Bdnf, Rbbp4; 6 h, mouse immature primary neurons): transcription dependent | expression of plasticity genes Creb1, Bdnf and Rbbp4 (mRNA) (Creb1, Bdnf, Rbbp4; increasing concentrations, 6 h, mouse primary neurons): dose dependent increase

tunicamycin
expression of plasticity genes Creb1 and Bdnf (Creb1, Bdnf, Rbbp4; [3]): increase | gene expression of chaperone Bip (Trib3, Chac1, Bip; [3]): increase
